Results taken from paper PMC7004148, “Flexible Fragment Growing Boosts Potency of Quorum‐Sensing Inhibitors against Pseudomonas aeruginosa Virulence” (Chemmedchem, 2019).
“And” between values parts separate entries of the source, which are not always exact repeats. Equal values may be shown once. Read-outs that look alike come from different tables or passages of the source.

Legend:
[1] = biological target: T1, PqsR (Pseudomonas aeruginosa, UniProt Q9I4X0); assay: biochemical; format: binding; parameters: H6SUMOPqsRc87 and T265A mutant H6SUMOPqsRc87 for ITC studies was expressed; made in house; host or cells: E. coli BL21 (λDE3)
Description: 3.2 Expression and Purification of H6SUMOPqsRc87
(§1) H6SUMOPqsRc87 and T265A mutant H6SUMOPqsRc87 for ITC studies was expressed and purified as previously reported.[8,9] Briefly, E. coli BL21 (λDE3) transfected with the pSUMO3_ck4_pqsRC87 or pSUMO3_ck4_T265ApqsRC87 plasmid[8] were grown in LB medium containing 50 µg mL-1 kanamycin at 37 °C to an OD600 of approximately 0.8 and expression was induced with 0.2 mM IPTG for 16 h at 16 °C. The protein was purified using nickel affinity chromatography in a one step gradient.
ITC titrations were performed as described before.[8,9] Briefly, ITC experiments were carried out using an ITC200 instrument (Microcal Inc., GE Healthcare). The titrations were performed on 50-150 µM H6SUMO-PqsRC87 in the 200 µL sample cell using 19 injections of 2 µL ligand solution (0.5-1.5 mM) every 180 s. The data were collected and the area under each peak was integrated. To correct for heats of dilution and mixing the final base line consisting of small peaks of the same size at the end of the titration were substracted.
Target sequence in this assay (Q9I4X0 87-332): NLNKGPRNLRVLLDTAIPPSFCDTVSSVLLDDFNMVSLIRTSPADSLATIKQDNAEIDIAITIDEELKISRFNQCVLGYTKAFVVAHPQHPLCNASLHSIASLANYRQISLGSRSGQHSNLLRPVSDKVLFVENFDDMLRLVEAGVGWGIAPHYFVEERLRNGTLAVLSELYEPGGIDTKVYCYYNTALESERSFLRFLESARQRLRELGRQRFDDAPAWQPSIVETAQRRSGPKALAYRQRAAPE

[2] = biological target: T1, PqsR; assay: PqsR β-galactosidase reporter gene assay in E. coli; format: cell-based; parameters: expressed in transfected cells; host or cells: E. coli DH5α carrying plasmid pEAL08-2; details: for Inverse agonistic/antagonistic activity at a given concentration: @ 100 μM; for Inverse agonistic/antagonistic activity at a given concentration / IC50 (inverse agonistic/antagonistic activity): in the presence of 50 nM PQS; for IC50 (inverse agonistic/antagonistic activity): n.i.=no inhibition (activity≤15 %)
Description: 5. E. coli reporter-gene assay & dose-response curves
PqsR Reporter gene assay in E. coli. The inverse agonistic/antagonistic activity of potential PqsR ligands was evaluated in a β-galactosidase reporter gene assay in E. coli as previously described.[26] In short, test compounds were co-incubated with E. coli DH5α cells containing the plasmid pEAL08-2,[27] which expresses PqsR and the β-galactosidase LacZ under the control of the pqsA promoter. The inverse agonistic/antagonistic activity of compounds was measured in the presence of 50 nM PQS. After incubation, galactosidase activity was quantified photometrically and expressed as ratio of controls. The given IC50 values represent the mean of at least two independent experiments using at least eight different concentrations of test compound with n = 4. Non-linear regression analysis was done using the log (inhibitor) vs response model included in the GrapPad Prism 5.0 software package.
Target sequence in this assay (Q9I4X0 whole entry): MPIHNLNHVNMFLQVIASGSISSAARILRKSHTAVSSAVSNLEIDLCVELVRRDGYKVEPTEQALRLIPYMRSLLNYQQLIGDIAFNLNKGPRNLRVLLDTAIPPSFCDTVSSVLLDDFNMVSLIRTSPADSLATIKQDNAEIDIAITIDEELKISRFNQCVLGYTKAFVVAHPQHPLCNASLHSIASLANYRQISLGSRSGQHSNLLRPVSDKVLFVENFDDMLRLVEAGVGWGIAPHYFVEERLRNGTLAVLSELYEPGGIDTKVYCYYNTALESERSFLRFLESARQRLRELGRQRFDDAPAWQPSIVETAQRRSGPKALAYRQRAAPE

[3] = system: HHQ levels in PA14pqsH strain; assay: HHQ quantification in PA14pqsH cultures (UHPLC-MS/MS); format: cell-based; details: Pseudomonas aeruginosa, read-out: HHQ inhibition
Description: (§2) determine IC50 values using a log (inhibitor) vs. response model with constrains (bottom = 0; top =100) (Graph Pad Prism 5.04).
(§3) HHQ and HQNO Quantification. Extracellular HHQ and HQNO were measured as previously reported[29] following a modified procedure of Lépine et al.:[30] Briefly, P. aeruginosa PA14pqsH cultures were grown in the presence of DMSO as a control or DMSO solutions of inhibitors for 17 h. HHQ and HQNO were quantified from ethyl acetate extracts using 5,6,7,8-tetradeutero-2-heptyl-4(1H)-quinolone (HHQ-d4) as internal standard (IS).
(§4) UHPLC-MS/MS analysis was performed as described in detail by Storz et al.[31] The following ions were monitored (mother ion [m/z], product ion [m/z], scan time [s], scan width [m/z], […]
(§5) quantification was performed using Xcalibur software with the use of a calibration curve relative to the area of the IS. Given data represent the mean of at least two independent experiments with n=3 and were expressed as percentage inhibition relative to DMSO control.

[4] = system: pyocyanin in P. aeruginosa PA14; assay: Pyocyanin assay in P. aeruginosa PA14 cultures; format: cell-based, Pseudomonas aeruginosa PA14; details: for IC50: mean of at least two independent experiments, SD<25 %
Description: 6. Effects in P. aeruginosa
Pyocyanin Assay. The inhibition of virulence factor pyocyanin was measured as described previously[26] following a procedure established by Essar et al.[28] Briefly, Pseudomonas aeruginosa PA14 cultures were grown in the presence of inhibitors or DMSO as control for 16 h. Pyocyanin was determined photometrically after extraction of the cultures with chloroform and re-extraction with 0.2 M HCl. Protonated red colored pyocyanin was determined by measuring OD520 and normalizing to OD600. None of the compound impaired bacterial viability as observed by the OD600 parameter. Inhibition values were expressed in relation to the DMSO control. Each value is the mean of at least two independent experiments with n=3.
The given IC50 values represent the mean of at least two experiments using at least five different concentrations. Curve fitting was performed using the log (inhibitor) vs response model with constrained bottom = 0 and top =100 (GraphPad Prism 5.0).
Figure S4: Inhibition of virulence factor pyocyanin was evaluated in the clinical isolate PA14.
Representative dose-response curves a) compound 11 b) compound 20. Black dotes (•) represent the reduction of pyocyanin in presents of a given compound concentration relative to DMSO control (= 0 %). The continuous black line is the none -linear regression analysis to […]
(1 picture or pasted object on this page, not shown here)

[5] = system: HQNO levels in PA14pqsH strain; assay: HQNO quantification in PA14pqsH cultures (UHPLC-MS/MS); format: cell-based; details: Pseudomonas aeruginosa, read-out: HQNO inhibition
Description: as §2, §3, §4, §5

[6] = biological target: T2, PqsRT265A (Pseudomonas aeruginosa, UniProt Q9I4X0, T265A); assay: ITC thermodynamic signature, PqsRwt versus PqsRT265A mutant; format: binding; details: comparison of thermodynamic signatures (SI, Figure S3)
T2 construct: H6SUMOPqsRc87 and T265A mutant H6SUMOPqsRc87 for ITC studies was expressed; made in house; host or cells: E. coli BL21 (λDE3)
T2 sequence (Q9I4X0 87-332 T265A): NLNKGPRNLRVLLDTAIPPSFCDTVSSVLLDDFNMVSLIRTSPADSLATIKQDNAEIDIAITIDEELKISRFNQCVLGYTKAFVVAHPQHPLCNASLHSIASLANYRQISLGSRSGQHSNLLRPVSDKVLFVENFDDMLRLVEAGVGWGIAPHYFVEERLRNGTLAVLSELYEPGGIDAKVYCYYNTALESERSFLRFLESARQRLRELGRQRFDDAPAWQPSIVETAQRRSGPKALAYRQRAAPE
Description: 3. Isothermal Titration Calorimetry
3.1 Site-directed Mutagenesis: PqsRT265A mutant
The plasmid pSUMO3_ck4_T265ApqsRC87 was generated as previously described[8] using QuikChange Site-Directed Mutagenesis Kit (Stratagene) following the manufacturer’s instructions. The following primer were used: forward 5'
3. PCR condition to amplify the T265A gene: 16 cycles with 35s denaturation at 95 °C, 60 s annealing at 55 ° C, and 13 min extension. The generated plasmid was transformed via electroporation into E. coli BL21 3.2 Expression and Purification of H6SUMOPqsRc87
as §1
ITC titrations were performed as described before.[8,9] Briefly, ITC experiments were carried out using an ITC200 instrument (Microcal Inc., GE Healthcare). The titrations were performed on 50-150 µM H6SUMO-PqsRC87 in the 200 µL sample cell using 19 injections of 2 µL ligand solution (0.5-1.5 mM) every 180 s. […]

[7] = system: PqsR; parameters: method as in PMID 24338917; details: PQS-mediated effect in E. coli-based assay; read-out: EC 50(E.coli); cited from earlier work
[8] = biological target: T1, PqsR; assay: PQS-mediated effect in P. aeruginosa; format: cell-based; parameters: expressed in transfected cells; host or cells: E. coli DH5α carrying plasmid pEAL08-2
Target sequence in this assay (Q9I4X0 whole entry): as the sequence (Q9I4X0 whole entry) above

[9] = biological target: PqsR ligand binding domain; parameters: method as in PMID 23713667; details: native agonist PQS towards the ligand binding domain; cited from earlier work
[10] = Table 1, EE=−ΔH/(heavy atom count)
[11] = Table 1, LE=−ΔG/(heavy atom count)
[12] = Pseudomonas aeruginosa, PA14, read-out: Pyocyanin inhibition

Nc1nnc(-c2cccc(C(F)(F)F)c2)o1 [Compound 2] gave a Kd [1] of 1.3 ± 0.3 µM, an EE [1, 10] of 2.22 kJ/mol and a ΔG ([1]; Table 1, ITC at 298 K) of -33.5 ± 0.42 kJ/mol. The ΔH ([1]; Table 1, ITC at 298 K) was -35.6 ± 2.1 kJ/mol, the “−TΔS” value ([1]; Table 1, ITC at 298 K) was 1.7 ± 2.5 kJ/mol and the LE [1, 11] was 2.09 kJ/mol.
In the case of Nc1cc(-c2ccc(F)cc2)cc(C(F)(F)F)n1 [Compound 10], the “Inverse agonistic/antagonistic activity at a given concentration” value [2] is reported as 29 % @ 100 μM.
With Nc1cc(NCc2ccc(F)cc2)cc(C(F)(F)F)n1 [Compound 11] the inhibition at 200 µM [3] was 48 ± 4%, the IC50 ([4]; Pseudomonas aeruginosa, PA14, read-out: Pyocyanin IC50, PA14 cultures, photometric quantification) was 105 ± 13 µM and the IC50 ([4]; read-out: Pyocyanin IC50, PA14 cultures, photometric quantification) was 102 µM. The Kd [1] was 0.6 ± 0.2 µM, the “-TΔS” value ([1]; Table S1) was 4.18 ± 3.3 kJ/mol and the ΔG ([1]; Table S1) was -35.1 ± 0.84 kJ/mol. It also gave a ΔH ([1]; Table S1) of -41 ± 3.3 kJ/mol, an EE ([1]; Table S1, enthalpic efficiency) of 2.05 kJ/mol and an LE ([1]; Table S1, ligand efficiency) of 1.76 kJ/mol. For the same compound, the inhibition at 200 µM [5] was 36 ± 3% and the “Enthalpic contribution, PqsRwt versus PqsRT265A” value [6] was “no significant difference in the enthalpic contribution”.
For CC(C)(C)c1ccc(C(=O)NO)cc1 [Compound 1], the Kd [1] was 4.1 ± 0.6 µM, the EE [1, 10] was 2.64 kJ/mol and the ΔG ([1]; Table 1, ITC at 298 K) was -31 ± 0.42 kJ/mol. For the same compound, the ΔH ([1]; Table 1, ITC at 298 K) was -37.2 ± 0.84 kJ/mol, the “−TΔS” value ([1]; Table 1, ITC at 298 K) was 6.28 ± 1.3 kJ/mol and the LE [1, 11] was 2.22 kJ/mol.
In the case of CCCCCCCc1[nH]c2ccccc2c(=O)c1O [PQS, 2‐heptyl‐3‐hydroxy‐4(1H)‐quinolone], the EC50 [7] is given as 0.0063 µM, the EC50 [8] is given as 0.024 µM and the Kd [9] is given as 1.2 ± 0.3 µM.
For Nc1cccc(C(F)(F)F)n1 [Compound 7], the inhibition at 250 µM [4, 12] was 43%, the Kd [1] was 3.1 ± 0.5 µM and the EE [1, 10] was 4.39 kJ/mol. For the same compound, the ΔG ([1]; Table 1, ITC at 298 K) was -31.4 ± 0.42 kJ/mol, the ΔH ([1]; Table 1, ITC at 298 K) was -48.1 kJ/mol and -48.1 ± 3.8 kJ/mol and the “−TΔS” value ([1]; Table 1, ITC at 298 K) was 15.5 ± 4.2 kJ/mol. For the same compound, the LE [1, 11] was 2.93 kJ/mol.
With Nc1cc(NCCOc2ccc(F)cc2)cc(C(F)(F)F)n1 [Compound 21] the inhibition at 100 µM [4, 12] was 58% and the “drop in antagonistic activity versus 20” value ([2]; E. coli reporter gene assay, compared with 20) was 20 fold.
In the case of Nc1ccc(Br)cn1 [Compound 4], the Kd [1] is reported as > 50 µM.
For Nc1cc(NC(=O)c2ccc(F)cc2)cc(C(F)(F)F)n1 [Compound 16], the “Inverse agonistic/antagonistic activity at a given concentration” value [2] was 35±5 % @ 100 μM.
In the case of CC(=O)Nc1cccc(C(F)(F)F)n1 [Compound 8], the “K D (ITC)” value ([1]; Table 1, ITC at 298 K, mean±SD, at least two independent experiments, >50 = no heat release detectable at solubility maximum) is reported as “abolished the affinity” and the “IC50 (inverse agonistic/antagonistic activity)” value [2] is reported as “n.i”.
Nc1cccc(Br)n1 [Compound 3] showed a Kd [1] of 10 ± 1.3 µM, an EE [1, 10] of 4.9 kJ/mol and a ΔG ([1]; Table 1, ITC at 298 K) of -28.5 ± 0.42 kJ/mol. For the same compound, the ΔH ([1]; Table 1, ITC at 298 K) was -38.9 ± 1.7 kJ/mol, the “−TΔS” value ([1]; Table 1, ITC at 298 K) was 10.5 ± 1.7 kJ/mol and the LE [1, 11] was 3.56 kJ/mol. For the same compound, the “IC50 (inverse agonistic/antagonistic activity)” value [2] was “did not show significant antagonistic activity”.
